Data set [1] is described as follows: Ex vivo release of bioactive agent from poly(DL-lactide) implant matrix, with and without release rate modification agent. The class given is physicochemical. An excerpt:
The use of a release rate modification agent may either decrease or increase the release of the bioactive agent in the range of multiple orders of magnitude (e.g., 1 to 10 to 100), preferably up to a ten-fold change, as compared to the release of a bioactive agent from a solid matrix without the release rate modification agent. For example, naltrexone and doxycycline are substantially completely released from a polymer matrix comprised of poly(DL-lactide) within about 2-3 days ex vivo. With the addition of a release rate modification agent such as ethyl heptanoate which is hydrophobic to the polymer solution, and formation of the implant matrix through interaction of the polymer solution and an aqueous medium, the release rate of naltrexone or doxycycline can be slowed to produce substantially complete release of the drug within about seven days. With the inclusion of a greater amount of a release rate modification agent into the polymer solution, the time period of the release can be increased to about fourteen days. Other release rate modification agents which are hydrophilic such as polyethylene glycol may increase the release of the bioactive agent. […]

The nature of data set [2]: Cumulative release of flurbiprofen from implant matrix at different polymer concentrations. The class given is physicochemical. To be noted: about 5% flurbiprofen; for cumulative release: about 55% poly(DL-lactide); for cumulative percent release: polymer concentration about 45%. An excerpt:
The release rate of the bioactive agent from the implant matrix may also be adjusted by varying the concentration of the polymer in the polymer solution. For example, the more dilute the polymer concentration, the more readily the bioactive agent will be released from the implant matrix. For example, in a system containing about 5% flurbiprofen and a polymer concentration of about 55% poly(DL-lactide), a cumulative release of about 11.4% at day 1 and about 23% at day 7 may be provided. With a polymer concentration of about 45%, the cumulative percent release is about 23% at day 1 and about 40% at day 7.

For `O=C1CC[C@@]2(O)[C@H]3Cc4ccc(O)c5c4[C@@]2(CCN3CC2CC2)[C@H]1O5` [naltrexone], the “time period of the release” value in data set [1] (poly(DL-lactide) matrix with a greater amount of release rate modification agent) was “about fourteen”. Further, the “time to substantially complete release from polymer matrix” value in data set [1] (poly(DL-lactide) matrix with ethyl heptanoate added as release rate modification agent) is recorded as “about seven”.

Regarding `CC(C(=O)O)c1ccc(-c2ccccc2)c(F)c1` (stereo not drawn) [flurbiprofen], the cumulative release result in data set [2] (day 1) was “about 11.4%”; in data set [2] (day 7) it was “about 23%”. The cumulative percent release entry in data set [2] (day 1) is given as “about 23%”; in data set [2] (day 7) it was “about 40%”.

These data come from patent US6395293B2, “Biodegradable implant precursor” (Atrix Laboratories, priority 1989, dated 2002).
